Experimental data as given in US20250221410A1, “SUBSTITUTED 2-C-AZINES AND SALTS THEREOF, AND USE THEREOF AS HERBICIDAL ACTIVE SUBSTANCES” (BAYER AKTIENGESELLSCHAFT, priority 2022, published 2025).

Columns and labels:
Format in all cases: in vivo
[1] = test system: ABUTH: Abutilon theophrasti; experiment: Post-emergence herbicidal efficacy at 1280 g/ha, ABUTH; settings: rated visually after about 3 weeks vs untreated controls, 100% = plants have died, 0% = like control plants
Method in brief: (§1)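 Greenhouse pot test in sandy loam. Plants at the one-leaf stage, 2–3 weeks after sowing, were sprayed post-emergence with WP or EC formulations in water containing 0.5% additive, at 600 L/ha. Activity was scored visually about 3 weeks later against untreated controls (100% = dead, 0% = as control).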

[2] = test system: ALOMY: Alopecurus myosuroides; experiment: Post-emergence herbicidal efficacy at 1280 g/ha, ALOMY; settings: rated visually after about 3 weeks vs untreated controls, 100% = plants have died, 0% = like control plants
Procedure: (§2) Seeds of mono- and dicotyledonous weed plants were placed in plastic pots in sandy loam soil (doubly sown with in each case one species of mono- or dicotyledonous weed plants per pot), covered with soil and cultivated in a greenhouse under controlled growth conditions. 2 to 3 weeks after sowing, the test plants were treated at the one-leaf stage. The compounds of the invention, formulated in the form of wettable powders (WP) or as emulsion concentrates (EC), were applied to the green parts of the plants as aqueous suspension or emulsion with addition of 0.5% additive at a water application rate equivalent to 600 litres per hectare. After the test plants had been kept in the greenhouse under optimum growth conditions for about 3 weeks, the activity of the preparations was rated visually in comparison to untreated controls. For example, 100% activity=the plants have died, 0% activity=like control plants. Tables A1 to A12 below show the effects of selected compounds of the general formula (I) according to Table 1 on various harmful plants and at an application rate corresponding to 1280 g/ha, which were obtained by the trial procedure specified above.

[3] = test system: AMARE: Amaranthus retroflexus; experiment: Post-emergence herbicidal efficacy at 1280 g/ha, AMARE; settings: rated visually after about 3 weeks vs untreated controls, 100% = plants have died, 0% = like control plants
Method in brief: as §1

[4] = test system: DIGSA: Digitaria sanguinalis; experiment: Post-emergence herbicidal efficacy at 1280 g/ha, DIGSA; settings: rated visually after about 3 weeks vs untreated controls, 100% = plants have died, 0% = like control plants
Method in brief: as §1

[5] = test system: ECHCG: Echinochloa crus-galli; experiment: Post-emergence herbicidal efficacy at 1280 g/ha, ECHCG; settings: rated visually after about 3 weeks vs untreated controls, 100% = plants have died, 0% = like control plants
Method in brief: as §1

KCHSC: Kochia scoparia [6] = experiment: Post-emergence herbicidal efficacy at 1280 g/ha, KCHSC; settings: visual rating about 3 weeks after treatment vs untreated controls
Method in brief: as §1

LOLRI: Lolium rigidum = experiment: Post-emergence herbicidal efficacy at 1280 g/ha, LOLRI; settings: visual rating about 3 weeks after treatment vs untreated controls
Procedure: as §2

POAAN: Poa annua [7] = experiment: Post-emergence herbicidal efficacy at 1280 g/ha, POAAN; settings: visual rating about 3 weeks after treatment vs untreated controls
Method in brief: as §1

SETVI: Setaria viridis [8] = experiment: Post-emergence herbicidal efficacy at 1280 g/ha, SETVI; settings: visual rating about 3 weeks after treatment vs untreated controls
Method in brief: as §1

STEME: Stellaria media [9] = experiment: Post-emergence herbicidal efficacy at 1280 g/ha, STEME; settings: visual rating about 3 weeks after treatment vs untreated controls
Method in brief: as §1

VERPE: Veronica persica [10] = experiment: Post-emergence herbicidal efficacy at 1280 g/ha, VERPE; settings: visual rating about 3 weeks after treatment vs untreated controls
Method in brief: as §1

[11] = test system: ABUTH: Abutilon theophrasti; experiment: Pre-emergence herbicide efficacy at 1280 g/ha, ABUTH; settings: visual scoring after about 3 weeks vs untreated controls
Method in brief: (§3)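 Pre-em, sandy loam pots, seeds covered w/ soil. WP/EC formulation, aq. spray onto soil surface, 0.5% additive, 600 L/ha. Greenhouse ~3 wk; visual % vs untreated (0 = control, 100 = dead).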

[12] = test system: ALOMY: Alopecurus myosuroides; experiment: Pre-emergence herbicide efficacy at 1280 g/ha, ALOMY; settings: visual scoring after about 3 weeks vs untreated controls
From the text: Seeds of mono- and dicotyledonous weed plants were placed in plastic pots in sandy loam soil (doubly sown with one species each of mono- or dicotyledonous weed plants per pot) and covered with soil. The compounds of the invention, formulated in the form of wettable powders (WP) or as emulsion concentrates (EC), were then applied to the surface of the covering soil as aqueous suspension or emulsion with addition of 0.5% additive at a water application rate of 600 litres per hectare (converted). After the treatment, the pots were placed in a greenhouse and kept under good growth conditions for the test plants. After about 3 weeks, the efficacy of the preparations was scored visually in comparison with untreated controls as percentages. For example, 100% activity=the plants have died, 0% activity=like control plants. Tables C1 to C12 below show the effects of selected compounds of the general formula (I) according to Table 1 on various harmful plants and at an application rate corresponding to 1280 g/ha, which were obtained by the trial procedure specified above.

[13] = test system: AMARE: Amaranthus retroflexus; experiment: Pre-emergence herbicide efficacy at 1280 g/ha, AMARE; settings: visual scoring after about 3 weeks vs untreated controls
Method in brief: as §3

[14] = test system: DIGSA: Digitaria sanguinalis; experiment: Pre-emergence herbicide efficacy at 1280 g/ha, DIGSA; settings: visual scoring after about 3 weeks vs untreated controls
Method in brief: as §3

[15] = test system: ECHCG: Echinochloa crus-galli; experiment: Pre-emergence herbicide efficacy at 1280 g/ha, ECHCG; settings: visual scoring after about 3 weeks vs untreated controls
Method in brief: as §3

KCHSC: Kochia scoparia [16] = experiment: Pre-emergence herbicide efficacy at 1280 g/ha, KCHSC; settings: visual scoring after about 3 weeks vs untreated controls
Method in brief: as §3

POAAN: Poa annua [17] = experiment: Pre-emergence herbicide efficacy at 1280 g/ha, POAAN; settings: visual scoring after about 3 weeks vs untreated controls
Method in brief: as §3

SETVI: Setaria viridis [18] = experiment: Pre-emergence herbicide efficacy at 1280 g/ha, SETVI; settings: visual scoring vs untreated controls
Method in brief: as §3

STEME: Stellaria media [19] = experiment: Pre-emergence herbicide efficacy at 1280 g/ha, STEME; settings: visual scoring vs untreated controls
Method in brief: as §3

VERPE: Veronica persica [20] = experiment: Pre-emergence herbicide efficacy at 1280 g/ha, VERPE; settings: visual scoring vs untreated controls
Method in brief: as §3

Structure (SMILES) | Post-emergence efficacy at 1280 g/ha against ABUTH in % [1] [%] | Post-emergence efficacy at 1280 g/ha against ALOMY in % [2] [%] | Post-emergence efficacy at 1280 g/ha against AMARE in % [3] [%] | Post-emergence efficacy at 1280 g/ha against ECHCG in % [5] [%] | Post-emergence efficacy against KCHSC (KCHSC: Kochia scoparia [6]) [%] | Post-emergence efficacy against LOLRI (LOLRI: Lolium rigidum) [%] | Post-emergence efficacy against POAAN (POAAN: Poa annua [7]) [%] | Post-emergence efficacy against SETVI (SETVI: Setaria viridis [8]) [%] | Post-emergence efficacy against STEME (STEME: Stellaria media [9]) [%] | Post-emergence efficacy against VERPE (VERPE: Veronica persica [10]) [%] | Pre-emergence efficacy against ABUTH [11] [%] | Pre-emergence efficacy against AMARE [13] [%] | Pre-emergence efficacy against POAAN (POAAN: Poa annua [17]) [%] | Pre-emergence efficacy against SETVI in % (SETVI: Setaria viridis [18]) [%] | Pre-emergence efficacy against STEME in % (STEME: Stellaria media [19]) [%] | Pre-emergence efficacy against VERPE in % (VERPE: Veronica persica [20]) [%] | also measured
Cc1cccc(Oc2ncc(Cl)cc2F)c1Cc1ncc(Cl)cn1 [Example 1-66] | 100 | 90 | 100 | 100 | 100 | 90 | 100 | 100 | 100 | 100 | 100 | 100 | 100 | 100 | 100 | 100 | Post-emergence efficacy at 1280 g/ha against DIGSA in % [4]: 100%; Pre-emergence efficacy against ALOMY [12]: 90%; Pre-emergence efficacy against DIGSA [14]: 100%; Pre-emergence efficacy against ECHCG [15]: 100%; Pre-emergence efficacy against KCHSC (KCHSC: Kochia scoparia [16]): 100%
Fc1cc(Cl)cnc1Cc1ccccc1SCCC(F)(F)F [Example 1-110] | 90 | – | 100 | – | 90 | 90 | 100 | – | 100 | 100 | 90 | 100 | 90 | – | 100 | – | –
Fc1cc(Cl)cnc1Cc1ccccc1-n1cc(C(F)(F)F)cn1 [Example 1-130] | 100 | 90 | 100 | 90 | 100 | – | 100 | 90 | 100 | 100 | 100 | 100 | 90 | 90 | – | 90 | –
